Results on 2 compounds are retold here after patent US12691112B2, “FGFR tyrosine kinase inhibitors for the treatment of urothelial carcinoma” (Janssen Pharmaceutica NV, priority 2019, dated 2026).

For test [1] the following is noted: 10 patients, nine with disease progression on prior immunotherapy; cited from earlier work.
The test system of test [2] is urothelial cancer. Description: Best response to prior chemotherapy before study enrolment, per investigator assessment. Conditions: first-line chemotherapy before study enrolment; across all regimens. The format is in vivo, human.
Description: Across all regimens, 184 patients had received first-line platinum-based chemotherapy, 83 had received second-line chemotherapy, and 24 had received third-line chemotherapy before study enrolment.

As to `COCc1c(-c2cc3cc(C)cc(OC)c3s2)c2c(N)ncnn2c1CN1CCNC(=O)C1` [rogaratinib], in test [1], the patients who responded is given as 30%.

Turning to gemcitabine plus cisplatin, the “best ORR per investigator assessment” value in test [2] worked out at 35%.
